Experimental findings from PMC13237026, “Structural basis for a central permeation pathway in the P2X1 receptor” (Cell Discovery, 2026) are described below.

By EC50 is commonly meant the concentration giving half of the maximal effect. Higher therefore signals a less potent agent. One may read the IC50 as the point on the concentration scale where inhibition reaches its midpoint. Read a low IC50 as greater potency in that assay. What is called stoichiometry N is the number of molecules, sites or subunits per partner or assembly.

Series [1] concerns the target T1, mP2X1 receptor (Mus musculus, UniProt P51576, R139A).
T1 construct: gene P2rx1
Put plainly: cell-based.

Series [2] deals with T2, mP2X1 receptor (Mus musculus, UniProt P51576, K140A).
T2 construct: gene P2rx1
Put plainly: cell-based.

Series [3] addresses T3, mP2X1 receptor (Mus musculus, UniProt P51576, K190A).
T3 construct: gene P2rx1
Put plainly: cell-based.

Series [4] has as its target T4, mP2X1 receptor (Mus musculus, UniProt P51576).
T4 sequence (P51576 1-399): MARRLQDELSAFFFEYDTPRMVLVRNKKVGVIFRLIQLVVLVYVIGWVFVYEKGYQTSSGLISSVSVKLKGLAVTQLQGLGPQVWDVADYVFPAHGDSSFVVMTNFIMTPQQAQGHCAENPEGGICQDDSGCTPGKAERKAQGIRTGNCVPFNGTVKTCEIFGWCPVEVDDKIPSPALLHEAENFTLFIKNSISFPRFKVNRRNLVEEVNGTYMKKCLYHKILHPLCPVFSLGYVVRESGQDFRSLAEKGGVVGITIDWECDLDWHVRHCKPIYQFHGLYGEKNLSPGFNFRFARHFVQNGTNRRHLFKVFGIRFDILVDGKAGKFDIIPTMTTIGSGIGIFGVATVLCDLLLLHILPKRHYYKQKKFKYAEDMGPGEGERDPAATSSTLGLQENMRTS
Put plainly: cryo-EM structure of the complex. The series is classed as binding. Also on record: gene P2rx1; full-length wild type; cryo-EM: Sf9, C-terminal His and Flag tags after HRV-3C site, homotrimer in LMNG; electrophysiology: HEK293, pCDNA3.1, labelled with mCherry.

Series [5] concerns the target T4, mP2X1 receptor. Put plainly: cell-based. Also on record: gene P2rx1.
Series [6] deals with T4, mP2X1 receptor. Put plainly: whole-cell patch clamp, HEK293, ATP-evoked mixed-cation current. Type of series: cell-based. Also on record: gene P2rx1; full-length wild type; electrophysiology: HEK293, pCDNA3.1, labelled with mCherry.
Series [7] deals with the molecule itself. Put plainly: cryo-EM structure; single-particle cryo-EM of purified mP2X1 in LMNG (20 mM HEPES pH 7.0, 150 mM NaCl, 0.002% LMNG), 4.0 mg/mL; without added Ca2+, with 1, 5 or 10 mM Ca2+, or with 5 mM Ca2+ and 10 uM BTFA.

T2 sequence (P51576 whole entry K140A): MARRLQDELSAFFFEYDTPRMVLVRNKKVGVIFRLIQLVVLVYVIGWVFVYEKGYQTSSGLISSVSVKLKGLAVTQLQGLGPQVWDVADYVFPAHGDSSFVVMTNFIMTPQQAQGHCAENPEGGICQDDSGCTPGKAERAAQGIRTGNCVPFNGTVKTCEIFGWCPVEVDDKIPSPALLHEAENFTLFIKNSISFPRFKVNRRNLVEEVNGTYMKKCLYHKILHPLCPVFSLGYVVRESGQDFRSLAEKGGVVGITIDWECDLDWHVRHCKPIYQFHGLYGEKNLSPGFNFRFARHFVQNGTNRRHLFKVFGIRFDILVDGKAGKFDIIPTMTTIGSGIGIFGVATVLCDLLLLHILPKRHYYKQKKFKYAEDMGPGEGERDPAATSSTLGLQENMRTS
T3 sequence (P51576 whole entry K190A): as the sequence (P51576 whole entry K140A) above, with A140K, K190A counted along it
T1 sequence (P51576 whole entry R139A): as the sequence (P51576 whole entry K140A) above, with R139A, A140K counted along it

On to `Nc1ncnc2c1ncn2[C@@H]1O[C@H](COP(=O)(O)OP(=O)(O)OP(=O)(O)O)[C@@H](O)[C@H]1O` [ATP], for which the EC50 at mP2X1 receptor [1] was determined as 5.29 µM; at mP2X1 receptor [2] it was 10.3 µM; on mP2X1 receptor [3] it was 6.74 µM; on mP2X1 receptor [5], 0.829 µM. For the same molecule, the “cryo-EM structure of the complex” value at mP2X1 receptor [4] (co-purified ATP, no exogenous ATP or Ca2+ added, three ATP per trimer, orthosteric site) is recorded as “EM maps revealed the presence of three clear ATP molecules within the structures”.

`Nc1cc(C(F)(F)F)cc(C(F)(F)F)c1` [BTFA, 3,5-bis(trifluoromethyl)aniline]: the “cryo-EM structure of the complex” value at mP2X1 receptor [4] (10 μM BTFA, 5 mM Ca2+, allosteric, top of central vestibule) is given as “we determined the cryo-EM structure of the P2X1–BTFA complex”. This molecule registered a concentration for half-maximal inhibition (IC50) against mP2X1 receptor [6] of 4.3 µM.

B1: full-length, wild-type mouse P2X1 (mP2X1) receptor (receptor, UniProt P51576 1-399, looked up)
chain: T4 sequence (P51576 1-399)
notes: mouse P2X1 receptor (P2RX1), wild type, full length, cloned from mouse olfactory cortex cDNA; His tag and Flag tag at the C-terminus are connected by an HRV-3C protease recognition site; no cleavage is described; N-linked glycosylation is observed; also called P2RX1; P2XR1; not shown: Flag (1x), C-terminal, kept
Take B1: the “stoichiometry N” value in series [7] came to 3.
